Values quoted from earlier work in patent US5064812A, “Metal complexes of N-acetyl-glucosaminyl-N-acetyl-muramoyl-L-alanyl-D-isoglutaminyl-(L)-mes o-diamino-pimelyl-(D-amide)-(L)-D-alanyl-D-alanine and their use in pharmaceuticals” (Sour Pliva, priority 1986, dated 1991).

How the values were obtained:
[1] = prior art literature
[2] = prior art literature; remark: listed apart in the source

## N-acetyl-glucosaminyl-N-acetyl-muramoyl-L-alanyl-D-isoglutaminyl-(L)-meso- diamino-pimelyl-(D-amide)-(L)-D-alanyl-D-alanine [PMG]
[1]
  immunostimulating activity: significant immunostimulating
[2]
  antimetastatic activity: antimetastatic activity
